Measured values from patent publication US20030073625A1, “Methods of preventing ventilator associated pneumonia by oral administration of antimicrobial IB-367 peptides” (priority 2001, published 2003).
Where no end group is shown, it is not given here.

How the values were obtained:
bacteria = conditions: repeated subcultures at one-half MIC; Steinberg et al., 1997; cited from earlier work
[1] = tested on: polymicrobial flora of the oral cavity; experiment: Microbicidal activity in human saliva; type: cell-based

Substance	development of resistance (bacteria)	microbicidal activity in human saliva [1]
PG-1: protegrin peptide PG-1 (RGGRLCYCRRRFCVCVGR; ends and bridges not checked; cysteine pairing not given here; UniProt P32194 131-148, looked up)	did not result in the development of resistance	–
RGGLCYCRGRFCVCVGR [native IB-367]	–	retains its microbicidal activity
